{
  "source": "patent US8648118B2",
  "about": "“Bicyclic ring system substituted amide functionalised phenols as medicaments” (Boehringer Ingelheim International GmbH, priority 2010, dated 2014)",
  "data": [
    {"target": "T1, BAF/3 cells expressing human CXCR2 (Homo sapiens, UniProt P25025)", "T1 construct": "expressed in transfected cells; host or cells: BAF/3 cells", "T1 sequence (P25025 1-360)": "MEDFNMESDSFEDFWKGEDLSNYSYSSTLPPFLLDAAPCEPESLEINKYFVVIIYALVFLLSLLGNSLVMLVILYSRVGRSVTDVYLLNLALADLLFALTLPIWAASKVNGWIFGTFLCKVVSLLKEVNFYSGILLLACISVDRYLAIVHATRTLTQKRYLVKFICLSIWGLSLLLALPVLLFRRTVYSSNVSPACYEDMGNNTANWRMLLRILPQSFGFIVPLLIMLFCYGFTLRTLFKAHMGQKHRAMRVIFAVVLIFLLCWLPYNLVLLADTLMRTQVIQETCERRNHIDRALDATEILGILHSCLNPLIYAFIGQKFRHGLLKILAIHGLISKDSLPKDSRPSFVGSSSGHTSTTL", "test": "Chemotaxis assay 1, transfected cell line: inhibition of CXCL1 induced chemotaxis", "type": "cell-based", "conditions": "inhibition of CXCL1 (3 nM) induced chemotaxis of BAF/3 cells expressing human CXCR2; 4 hours incubation", "procedure": "Chemotaxis assay 1, transfected cell line: This assay measures the inhibition of CXCL1 induced chemotaxis of BAF/3 cells expressing human CXCR2. For each assay point, 100 μL of a 3×10^6/mL cell suspension are incubated with 1 μL of test compound diluted in DMSO. The bottom wells of a chemotaxis plate (5 μm pore size, Neuroprobe) is filled with 305 μL of chemotaxis buffer (RPMI 1640 medium (phenol red free), containing 2% fetal calf serum) and 3 nM CXCL1. The 5 μm pore membrane is applied onto the chemotaxis plate and 80 μL of the cell suspension is cautiously pipetted onto the membrane. The lid is put on the chemotaxis plate and the plate is incubated for 4 hours in an incubator (37° C., 5% CO2). For quantification of migrated cells, the cell suspension and the lid are removed and 100 μL from the bottom chamber are transferred to an Opti plate 96 (Perkin Elmer). 100 μL of substrate solution (provided by Cell Titer Glo kit, Promega) are added. This method uses the measurement of ATP present in metabolically active cells. After 10 min incubation at room temperature the plate is measured at Luminoscan for quantification of ATP-dependent generation of oxyluciferin. IC50s of the tested compound are calculated by non-linear regression and using a sigmoidal dose-response curve as fitting algorithm (provided by GraphPadPrism). Determination of a bottom value is performed by quantification of migration of buffer treated cells, migrating towards buffer only. Determination of a top value is performed by quantification of migration of buffer treated cells, migrating towards CXCL1.", "units": {"IC50": "nM"}, "values": [
      {"smiles": "O=C(Nc1ccccc1Br)Nc1cccc(C(=O)N2CCC3(CCNC3=O)CC2)c1O", "note": "[Example 1]", "IC50": 597},
      {"smiles": "O=C(Nc1cccc(C(=O)N2CCC3(CCNC3=O)CC2)c1O)Nc1cccc(Cl)c1Cl", "note": "[Example 3]", "IC50": 634},
      {"smiles": "O=C(Nc1cccc(C(=O)N2CCC3(CCNC3=O)CC2)c1O)Nc1cccc(F)c1Cl", "note": "[Example 4]", "IC50": 34},
      {"smiles": "O=C(Nc1ccccc1Br)Nc1cccc(C(=O)N2CCN3CCCC3C2)c1O", "note": "(centres unmarked) [Example 5]", "IC50": 377},
      {"smiles": "O=C(Nc1cccc(C(=O)N2CCN3CCCC3C2)c1O)Nc1cccc(Cl)c1Cl", "note": "(centres unmarked) [Example 7]", "IC50": 2570},
      {"smiles": "O=C(Nc1ccccc1Br)Nc1cccc(C(=O)N2CCN3CCC[C@@H]3C2)c1O", "note": "[Example 8]", "IC50": 651},
      {"smiles": "O=C(Nc1cccc(C(=O)N2CCN3CCC[C@@H]3C2)c1O)Nc1cccc(F)c1Cl", "note": "[Example 9]", "IC50": 22},
      {"smiles": "O=C(Nc1ccccc1Br)Nc1cccc(C(=O)N2CCN3CCC[C@H]3C2)c1O", "note": "[Example 10]", "IC50": 260},
      {"smiles": "O=C(Nc1cccc(C(=O)N2CCN3CCC[C@H]3C2)c1O)Nc1cccc(F)c1Cl", "note": "[Example 11]", "IC50": 41},
      {"smiles": "O=C(Nc1ccccc1Br)Nc1cccc(C(=O)N2CCN3C(=O)CCC3C2)c1O", "note": "(centres unmarked) [Example 12]", "IC50": 119},
      {"smiles": "O=C(Nc1cccc(C(=O)N2CCN3C(=O)CCC3C2)c1O)Nc1cccc(Cl)c1Cl", "note": "(centres unmarked) [Example 13]", "IC50": 47},
      {"smiles": "O=C(Nc1cccc(C(=O)N2CCN3C(=O)CCC3C2)c1O)Nc1cccc(F)c1Cl", "note": "(centres unmarked) [Example 14]", "IC50": 11},
      {"smiles": "O=C(Nc1cccc(C(=O)N2CC(=O)N3CCCC3C2)c1O)Nc1cccc(F)c1Cl", "note": "(centres unmarked) [Example 15]", "IC50": 86},
      {"smiles": "O=C(Nc1ccccc1Br)Nc1cccc(C(=O)N2CC(=O)N3CCCC3C2)c1O", "note": "(centres unmarked) [Example 16]", "IC50": 85},
      {"smiles": "O=C(Nc1cccc(C(=O)N2CCN3CCOCC3C2)c1O)Nc1cccc(F)c1Cl", "note": "(centres unmarked) [Example 17]", "IC50": 1.2},
      {"smiles": "O=C(Nc1cccc(C(=O)N2CCN3C(=O)COC[C@H]3C2)c1O)Nc1cccc(F)c1Cl", "note": "[Example 18]", "IC50": 11},
      {"smiles": "O=C(Nc1cccc(C(=O)N2CCN3C(=O)COC[C@@H]3C2)c1O)Nc1cccc(F)c1Cl", "note": "[Example 19]", "IC50": 50},
      {"smiles": "CCC(Nc1c(Nc2cccc(C(=O)N3CCN4CCCC4C3)c2O)c(=O)c1=O)c1ccccc1", "note": "(centres unmarked) [Example 20]", "IC50": 16},
      {"smiles": "O=C(c1cccc(Nc2c(Nc3cccc(F)c3Cl)c(=O)c2=O)c1O)N1CCN2CCCC2C1", "note": "(centres unmarked) [Example 21]", "IC50": 8},
      {"smiles": "O=C(c1cccc(Nc2c(Nc3ccccc3Br)c(=O)c2=O)c1O)N1CCN2CCCC2C1", "note": "(centres unmarked) [Example 22]", "IC50": 1.5},
      {"smiles": "CC[C@H](Nc1c(Nc2cccc(C(=O)N3CCN4CCC[C@@H]4C3)c2O)c(=O)c1=O)c1ccccc1", "note": "[Example 23]", "IC50": 2740},
      {"smiles": "CC[C@@H](Nc1c(Nc2cccc(C(=O)N3CCN4CCC[C@@H]4C3)c2O)c(=O)c1=O)c1ccccc1", "note": "[Example 24]", "IC50": 3.2},
      {"smiles": "CC[C@H](Nc1c(Nc2cccc(C(=O)N3CCN4CCC[C@H]4C3)c2O)c(=O)c1=O)c1ccccc1", "note": "[Example 25]", "IC50": 1350},
      {"smiles": "CC[C@@H](Nc1c(Nc2cccc(C(=O)N3CCN4CCC[C@H]4C3)c2O)c(=O)c1=O)c1ccccc1", "note": "[Example 26]", "IC50": 3.9},
      {"smiles": "CC[C@@H](Nc1c(Nc2cccc(C(=O)N3CCN4CCC[C@H]4C3)c2O)c(=O)c1=O)c1ccc(C)o1", "note": "[Example 27]", "IC50": 0.1},
      {"smiles": "CC[C@@H](Nc1c(Nc2cccc(C(=O)N3CCN4CCC[C@H]4C3)c2O)c(=O)c1=O)c1ccc(C(F)(F)F)o1", "note": "[Example 28]", "IC50": 40},
      {"smiles": "CCC(Nc1c(Nc2cccc(C(=O)N3CCC4(CCNC4=O)CC3)c2O)c(=O)c1=O)c1ccccc1", "note": "(centres unmarked) [Example 29]", "IC50": 4.1},
      {"smiles": "CC[C@@H](Nc1c(Nc2cccc(C(=O)N3CCN4C(=O)CCC4C3)c2O)c(=O)c1=O)c1ccccc1", "note": "(some centres unmarked) [Example 30]", "IC50": 267},
      {"smiles": "CC[C@@H](Nc1c(Nc2cccc(C(=O)N3CC(=O)N4CCCC4C3)c2O)c(=O)c1=O)c1ccccc1", "note": "(some centres unmarked) [Example 31]", "IC50": 662},
      {"smiles": "CC[C@@H](Nc1c(Nc2cccc(C(=O)N3CCS(=O)(=O)C4(CCNC4=O)C3)c2O)c(=O)c1=O)c1ccccc1", "note": "(some centres unmarked) [Example 32]", "IC50": 401},
      {"smiles": "CC[C@@H](Nc1c(Nc2cccc(C(=O)N3CCC4(CCNC4=O)CC3)c2O)c(=O)c1=O)c1ccccc1", "note": "[Example 34]", "IC50": 126},
      {"smiles": "CC[C@@H](Nc1c(Nc2cccc(C(=O)N3CCN4CCOCC4C3)c2O)c(=O)c1=O)c1ccccc1", "note": "(some centres unmarked) [Example 35]", "IC50": 16},
      {"smiles": "CC[C@@H](Nc1c(Nc2cccc(C(=O)N3CC4(COC4)C3)c2O)c(=O)c1=O)c1ccccc1", "note": "[Example 36]", "IC50": 25},
      {"smiles": "CC[C@@H](Nc1c(Nc2cccc(C(=O)N3CCC4(CCCC4)CC3)c2O)c(=O)c1=O)c1ccccc1", "note": "[Example 37]", "IC50": 26},
      {"smiles": "CC[C@@H](Nc1c(Nc2cccc(C(=O)N3CCN4C(=O)COC[C@@H]4C3)c2O)c(=O)c1=O)c1ccccc1", "note": "[Example 38]", "IC50": 3.4},
      {"smiles": "CC[C@@H](Nc1c(Nc2cccc(C(=O)N3CC4OC(C)(C)C[C@@H]4[C@H]3C(=O)OC)c2O)c(=O)c1=O)c1ccccc1", "note": "(some centres unmarked) [Example 39]", "IC50": 23},
      {"smiles": "CC[C@@H](Nc1c(Nc2cccc(C(=O)N3CC4OC(C)(C)C[C@@H]4[C@H]3CO)c2O)c(=O)c1=O)c1ccccc1", "note": "(some centres unmarked) [Example 40]", "IC50": 34},
      {"smiles": "CC[C@@H](Nc1c(Nc2cccc(C(=O)N3CCC4C(=O)NCCC43)c2O)c(=O)c1=O)c1ccccc1", "note": "(some centres unmarked) [Example 41]", "IC50": 66},
      {"smiles": "CC[C@@H](Nc1c(Nc2cccc(C(=O)N3CCO[C@@H]4CNC[C@H]43)c2O)c(=O)c1=O)c1ccccc1", "note": "[Example 42]", "IC50": 45},
      {"smiles": "CC[C@@H](Nc1c(Nc2cccc(C(=O)N3CCO[C@@H]4CN(C)C[C@H]43)c2O)c(=O)c1=O)c1ccccc1", "note": "[Example 43]", "IC50": 11},
      {"smiles": "CC[C@@H](Nc1c(Nc2cccc(C(=O)N3CCC4(CC3)COCC(=O)N4)c2O)c(=O)c1=O)c1ccccc1", "note": "[Example 44]", "IC50": 2130},
      {"smiles": "CC[C@@H](Nc1c(Nc2cccc(C(=O)N3CC4OCCN(C)C4C3)c2O)c(=O)c1=O)c1ccccc1", "note": "(some centres unmarked) [Example 45]", "IC50": 3.3},
      {"smiles": "CC[C@@H](Nc1c(Nc2cccc(C(=O)N3CCN4CCOC[C@H]4C3)c2O)c(=O)c1=O)c1ccccc1", "note": "[Example 46]", "IC50": 51},
      {"smiles": "CC[C@@H](Nc1c(Nc2cccc(C(=O)N3CCN4C(CCS4(=O)=O)C3)c2O)c(=O)c1=O)c1ccccc1", "note": "(some centres unmarked) [Example 47]", "IC50": 818},
      {"smiles": "CC[C@@H](Nc1c(Nc2cccc(C(=O)N3CCN4C(=O)CCC4C3)c2O)c(=O)c1=O)c1ccc(C(F)(F)F)o1", "note": "(some centres unmarked) [Example 48]", "IC50": 859},
      {"smiles": "CC[C@@H](Nc1c(Nc2cccc(C(=O)N3CCN4CCNC(=O)C4C3)c2O)c(=O)c1=O)c1ccccc1", "note": "(some centres unmarked) [Example 49]", "IC50": 926},
      {"smiles": "CC[C@@H](Nc1c(Nc2cccc(C(=O)N3CCC4(CCNC4=O)CC3)c2O)c(=O)c1=O)c1ccc(C)o1", "note": "[Example 50]", "IC50": 1850},
      {"smiles": "O=C(c1cccc(Nc2c(Nc3cccc(F)c3Cl)c(=O)c2=O)c1O)N1CCN2CCCCC2C1", "note": "(centres unmarked) [Example 51]", "IC50": 247},
      {"smiles": "O=C(c1cccc(Nc2c(Nc3cccc(F)c3Cl)c(=O)c2=O)c1O)N1CCC2(CCNC2=O)CC1", "note": "[Example 52]", "IC50": 6.2},
      {"smiles": "O=C(c1cccc(Nc2c(Nc3cccc(F)c3Cl)c(=O)c2=O)c1O)N1CC2(COC2)C1", "note": "[Example 53]", "IC50": 360},
      {"smiles": "O=C(c1cccc(Nc2c(Nc3cccc(F)c3Cl)c(=O)c2=O)c1O)N1CCN2CCOCC2C1", "note": "(centres unmarked) [Example 54]", "IC50": 67},
      {"smiles": "O=C1NCCC2C1CCN2C(=O)c1cccc(Nc2c(Nc3cccc(F)c3Cl)c(=O)c2=O)c1O", "note": "(centres unmarked) [Example 55]", "IC50": 617},
      {"smiles": "O=C(c1cccc(Nc2c(Nc3cccc(F)c3Cl)c(=O)c2=O)c1O)N1CC(=O)N2CCCC2C1", "note": "(centres unmarked) [Example 56]", "IC50": 865}
    ]}
  ]
}
